Legend:
cancer cells = experiment: Anti-cancer activity of alanine-substituted MPS (method not given)
CL1-0 cells = experiment: NBD-labeled peptide binding to live cells (confocal microscopy); type: cell-based, human; details: NBD-labeled peptides; b53 versus D-Mut, b70 versus SEQ ID NO: 9
Description: FIGS. 28A-28C show MPS peptide binding to live cells. (A) Peptide sequences showing substitution of serine residues in MPS peptide (SEQ ID NO: 9). The serine residues of MPS peptide were replaced either by adding 4 aspartic acids (SEQ ID NO: 14), which are negatively charged and result in making the final peptide less positive, or by adding 4 alanines (SEQ ID NO: 10), which increased membrane affinity. Both the MPS and alanines-substituted (A-Mut) MPS peptides are highly positive charged and interact electrostatically with PIP2 on the phospholipid membrane. In contrast, electrostatic interaction with cell membrane is decreased in aspartates-substituted (D-Mut) MPS peptide (Gambhir, A. et al. (2004) Biophys. J. 86:2188-2207; Rusu, L. et al. (2004) Biophys J. 87:1044-1053; Glaser, M. et al. (1996) J. Biol. Chem. 271:26187-26193; Ellena, J.F. et al. (2003) Biophys. J. 85:2442-2448; McLaughlin, S. et al. (2005) Nature 438:605-611). Figure discloses “MH” domain as SEQ ID NO: 42. […] MPS peptide, D-Mut, and A-Mut MPS peptide were labeled with NBD (4-Chloro-7-Nitrobenz-2-Oxa-1,3-Diazole) dye. After purification of peptides, CL1-0 cells were treated with various NBD-labeled peptides and then subjected to DAPI staining. The NBD-labeled peptide (green) and nucleus counter-stain (blue) were visualized via confocal laser-scanning microscopy. […]

[1] = tested on: MARCKS phosphorylation (Ser159/163); experiment: Western blot of MARCKS phosphorylation in peptide-treated cells; type: cell-based, human; details: alanine-substituted peptide
Protocol: The levels of MARCKS phosphorylation in chemoresistant cancer cell lines after 24 hours of MPS or mutant (Mut) peptide treatment. Lysates form 100 μM MPS-or Mut peptide-treated H1650 or H1975cells were subjected to immunoblotting. The sequences of MARCKS MPS peptide consisted of amino acids 152 to 176 from the wild-type protein (SEQ ID NO: 9). The sequences of mutated MPS peptide (Mut) (SEQ ID NO: 14) had the replacement of serine residues (S) by aspartate (D) and are unable to be recognized by PKC. The underline represents the PIP2 binding site.
FIGS. 13A-13G show MPS peptide suppresses cancer cell proliferation and also induces apoptosis in these cells through direct downregulation of MARCKS activation. (A) Determination of MARCKS phosphorylation levels after 24 hours of MPS peptide treatment. Lysates from 1-100 μM MPS peptide-treated H1975 cells were subjected to western blot analysis. (B) Levels of PIP3 in drug resistant cancer cell lines after MPS peptide treatment. Cells were treated with 10, 50 or 100 μM MPS peptide. After 24 hours of treatment, PIP3 lipids were extracted from these cells and analyzed by a PIP3 ELISA kit. *P<0.05 compared with untreated cells. (C) Downregulation of AKT phosphorylation by MPS peptide treatment, but not by Mut peptide. Cells were treated with 100 μM MPS or Mut peptide for 24 hours. Lysates were immunoblotted with the indicated antibodies. (D) Cell viability analysis of six cancer cell lines and human bronchial epithelial cells (HBE1) upon MPS treatment. Cells were incubated with various concentrations of MPS peptide for 72 hours and then subjected to MTS assays. Polylysine served as a peptide control. n=4, *P<0.05 compared with untreated cells (Con). (E) Cells were treated with the indicated concentrations of MPS peptide and colonies were counted after 10 days of treatment using crystal violet staining (F) MPS treatment augments cell death. […] The percentages of apoptotic cells were quantified by flow cytometry (top), and presented as mean±SD of three experiments (bottom). *, P<0.05 versus untreated cells (Con). […]

KKKKKRFAFKKAFKLAGFAFKKNKK [SEQ ID NO: 10, alanines-substituted MPS peptide]
Anti-cancer activity compared to MPS peptide of SEQ ID NO: 9 (cancer cells): better anti-cancer activity
Peptide-cell interaction (CL1-0 cells): greater peptide-cell interaction
Phospho-MARCKS levels in cancer cells [1]: reduce phospho-MARCKS levels
